Here are results for nine compounds from ChEMBL document CHEMBL1201862, “PubChem BioAssay data set” (2004).

SMILES strings stand for the structures. Calls of active or inactive are those of the source.

Test [1] deals with T1, Tyrosine-protein phosphatase non-receptor type 22 (Homo sapiens, UniProt Q9Y2R2).
T1 sequence (Q9Y2R2 whole entry): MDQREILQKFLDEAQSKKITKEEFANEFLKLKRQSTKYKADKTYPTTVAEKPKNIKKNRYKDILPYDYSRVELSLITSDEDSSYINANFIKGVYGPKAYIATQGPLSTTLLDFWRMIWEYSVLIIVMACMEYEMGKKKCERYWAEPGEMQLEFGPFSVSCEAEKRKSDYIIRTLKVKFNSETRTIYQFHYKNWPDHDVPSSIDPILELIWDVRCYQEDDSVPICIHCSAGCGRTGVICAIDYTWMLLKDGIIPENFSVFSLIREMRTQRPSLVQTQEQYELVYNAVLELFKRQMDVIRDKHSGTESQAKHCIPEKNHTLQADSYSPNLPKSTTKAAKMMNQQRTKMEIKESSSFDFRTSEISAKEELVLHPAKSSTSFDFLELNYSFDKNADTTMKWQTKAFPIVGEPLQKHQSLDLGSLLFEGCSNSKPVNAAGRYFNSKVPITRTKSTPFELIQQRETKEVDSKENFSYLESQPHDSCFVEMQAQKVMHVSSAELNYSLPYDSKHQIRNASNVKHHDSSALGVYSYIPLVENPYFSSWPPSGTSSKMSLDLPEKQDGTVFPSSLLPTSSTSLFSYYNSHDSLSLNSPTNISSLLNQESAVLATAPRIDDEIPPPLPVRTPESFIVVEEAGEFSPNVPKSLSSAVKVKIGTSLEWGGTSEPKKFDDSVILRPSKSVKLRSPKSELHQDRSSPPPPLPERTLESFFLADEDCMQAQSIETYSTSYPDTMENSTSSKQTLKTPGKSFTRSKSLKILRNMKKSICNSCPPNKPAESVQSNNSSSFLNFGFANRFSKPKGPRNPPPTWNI
The format is functional.

For test [2], the target named is T2, Tyrosine-protein phosphatase non-receptor type 7 (Homo sapiens, UniProt P35236).
T2 sequence (P35236 whole entry): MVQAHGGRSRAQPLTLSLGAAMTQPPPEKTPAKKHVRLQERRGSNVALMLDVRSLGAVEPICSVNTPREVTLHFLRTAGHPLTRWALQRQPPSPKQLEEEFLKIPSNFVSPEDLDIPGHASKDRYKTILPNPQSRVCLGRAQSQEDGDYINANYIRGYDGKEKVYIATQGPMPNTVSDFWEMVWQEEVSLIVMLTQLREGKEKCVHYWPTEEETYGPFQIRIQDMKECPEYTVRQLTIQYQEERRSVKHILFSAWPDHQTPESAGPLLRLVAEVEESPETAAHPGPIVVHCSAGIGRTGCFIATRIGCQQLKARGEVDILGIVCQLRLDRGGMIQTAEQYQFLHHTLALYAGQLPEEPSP
In kind it is functional.

Test [3] addresses T1, Tyrosine-protein phosphatase non-receptor type 22. In kind it is functional. The source holds these as a separate data set.
Test [4] deals with T3, Voltage-gated N-type calcium channel alpha-1B subunit/Amyloid beta A4 precursor protein-binding family A member 1 (Homo sapiens, UniProt Q00975+Q02410). In kind it is protein assay.
For test [5], the target named is T3, Voltage-gated N-type calcium channel alpha-1B subunit/Amyloid beta A4 precursor protein-binding family A member 1. The format is protein assay. The source holds these as a separate data set.
Test [6] deals with G-protein coupled receptor 55 (Homo sapiens, UniProt Q9Y2T6). Description: GPR55 antagonists blocking LPI-driven arrestin recruitment, primary screen, imaging, U2OS, beta-arrestin-GFP, LPI agonist (AID 2013).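 Note: antagonist potency measured as reduced agonist-driven arrestin aggregation.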 In kind it is functional. Background: Arrestin recruitment assays detect the binding of arrestin to an activated receptor.
Test [7] deals with T4, Rac GTPase-activating protein 1 (Homo sapiens, UniProt Q9H0H5).
T4 sequence (Q9H0H5 whole entry): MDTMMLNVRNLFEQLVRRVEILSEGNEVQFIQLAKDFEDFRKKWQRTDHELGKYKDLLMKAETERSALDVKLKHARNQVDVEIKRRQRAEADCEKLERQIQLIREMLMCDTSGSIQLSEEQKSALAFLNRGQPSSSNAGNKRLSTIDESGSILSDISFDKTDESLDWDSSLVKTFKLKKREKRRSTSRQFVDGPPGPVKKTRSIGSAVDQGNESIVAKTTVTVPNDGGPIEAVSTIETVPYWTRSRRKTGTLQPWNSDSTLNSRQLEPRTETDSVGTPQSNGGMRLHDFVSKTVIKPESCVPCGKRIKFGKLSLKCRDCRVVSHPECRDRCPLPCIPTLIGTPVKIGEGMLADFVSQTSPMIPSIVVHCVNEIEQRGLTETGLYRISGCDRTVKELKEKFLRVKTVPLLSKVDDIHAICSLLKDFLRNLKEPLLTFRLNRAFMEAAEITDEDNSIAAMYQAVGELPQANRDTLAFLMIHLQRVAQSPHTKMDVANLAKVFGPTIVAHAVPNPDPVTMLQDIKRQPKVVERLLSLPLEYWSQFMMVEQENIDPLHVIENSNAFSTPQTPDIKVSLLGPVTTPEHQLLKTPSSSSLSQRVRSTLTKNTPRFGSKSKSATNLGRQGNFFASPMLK
Description: MgcRacGAP GTPase-activating activity inhibitors, confirmation, biochemical, ADP Hunter fluorescence, primary and confirmatory (AID 624330). The format is functional.

Test [8] addresses T5, SUMO-activating enzyme (Homo sapiens, UniProt Q9UBT2). The test is described as follows: inhibitors of in vitro SUMOylation cascade, primary screen, biochemical, HTRF, uHTS (AID 2006). The format is protein-complex assay. In general terms: Time-resolved FRET reads energy transfer from a long-lived donor to a nearby acceptor.
Test [9] concerns the target Induced myeloid leukemia cell differentiation protein Mcl-1 (Homo sapiens, UniProt Q07820). The format is functional.
A short description of test [10]: growth suppression of PTEN-null colon cells, dose response, cell-based, HCT116 PTEN knockout (AID 1047).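 Note: HCT116 colon tumor cells with PTEN knocked out; cells exposed to compound for 60 hours before readout; potency for loss of cell viability measured by luminescence.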 The format is functional.
Test [11] has as its target T5, SUMO-activating enzyme. Description: SUMOylation inhibitor hit validation, confirmation, SUMOylation inhibitor project, biochemical, AlphaScreen (AID 2018). The format is functional. In general terms: Alpha assays give light when donor and acceptor beads are brought close together.
A short description of test [12]: growth suppression of beta-catenin-knockout colon cells, dose response, cell-based, HCT116, human colon tumor (AID 1045).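 Note: HCT116 colon tumor cells with beta catenin knocked out; cells exposed to compound for 60 hours.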 In kind it is functional.
For the next test, the system named is Vero. Description: cells. In kind it is functional. Particulars: Chlorocebus sabaeus.
A short description of test [13]: HEp-2 cell cytotoxicity, dose response, cytotoxicity control for RSV inhibitor project, HTS (AID 2410). In kind it is functional. As to conditions: human respiratory syncytial virus.
In test [14] the target is Eukaryotic translation initiation factor 4E (Mus musculus, UniProt P63073). The test is described as follows: eIF4E–eIF4G protein interaction inhibitors, dose response, biochemical, TR-FRET (AID 855).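 Note: potency for disrupting eIF4E binding to eIF4GI seen as loss of FRET.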 The format is functional.
The nature of test [15]: Luminescence Cell-Based Dose Retest to Confirm Inhibitors of Cancer Stem Cells. [Related pubchem assays (depositor defined):AID2717, AID2721]. The format is functional. As to conditions: Homo sapiens.
The target in another test is Troponin, cardiac muscle (Homo sapiens, UniProt P19429+P45379+P63316). Description: Fluorescence-based biochemical high throughput dose response assay for activators of the calcium sensitivity of cardiac Regulated Thin Filaments (RTF). [Related pubchem assays (depositor defined):AID493008, AID493018, AID504382, AID504383]. The format is protein-complex assay.
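Throughout, for AC50: cells exposed to compound for roughly 70 hours or longer before luminescence read.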

T5 sequence (Q9UBE0 whole entry): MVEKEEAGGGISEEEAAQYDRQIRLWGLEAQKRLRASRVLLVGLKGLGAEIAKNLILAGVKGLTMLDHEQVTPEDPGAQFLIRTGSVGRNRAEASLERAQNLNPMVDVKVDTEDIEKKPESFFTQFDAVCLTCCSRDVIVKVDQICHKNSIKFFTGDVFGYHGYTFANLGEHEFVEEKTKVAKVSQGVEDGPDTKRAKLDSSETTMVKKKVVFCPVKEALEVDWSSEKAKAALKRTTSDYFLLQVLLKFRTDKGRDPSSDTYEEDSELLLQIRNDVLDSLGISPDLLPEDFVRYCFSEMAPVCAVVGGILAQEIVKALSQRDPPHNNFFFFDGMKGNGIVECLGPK
T5 sequence (Q9UBT2 whole entry): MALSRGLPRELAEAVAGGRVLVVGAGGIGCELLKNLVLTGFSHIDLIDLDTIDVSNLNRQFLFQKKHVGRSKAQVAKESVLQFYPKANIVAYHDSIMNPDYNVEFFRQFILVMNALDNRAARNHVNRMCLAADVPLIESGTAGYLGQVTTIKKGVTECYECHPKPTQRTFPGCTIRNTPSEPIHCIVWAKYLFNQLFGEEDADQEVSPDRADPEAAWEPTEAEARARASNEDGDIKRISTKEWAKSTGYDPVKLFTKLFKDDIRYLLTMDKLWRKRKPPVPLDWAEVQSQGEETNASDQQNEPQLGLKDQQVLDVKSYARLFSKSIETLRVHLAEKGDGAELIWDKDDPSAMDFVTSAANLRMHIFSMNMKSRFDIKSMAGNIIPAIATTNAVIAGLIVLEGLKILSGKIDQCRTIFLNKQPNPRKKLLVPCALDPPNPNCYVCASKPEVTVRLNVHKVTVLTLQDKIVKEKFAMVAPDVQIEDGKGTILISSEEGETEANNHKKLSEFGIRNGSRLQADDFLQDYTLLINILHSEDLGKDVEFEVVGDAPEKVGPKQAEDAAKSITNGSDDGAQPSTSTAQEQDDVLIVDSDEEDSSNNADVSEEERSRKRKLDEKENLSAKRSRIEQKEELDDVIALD
T3 sequence (Q00975 whole entry): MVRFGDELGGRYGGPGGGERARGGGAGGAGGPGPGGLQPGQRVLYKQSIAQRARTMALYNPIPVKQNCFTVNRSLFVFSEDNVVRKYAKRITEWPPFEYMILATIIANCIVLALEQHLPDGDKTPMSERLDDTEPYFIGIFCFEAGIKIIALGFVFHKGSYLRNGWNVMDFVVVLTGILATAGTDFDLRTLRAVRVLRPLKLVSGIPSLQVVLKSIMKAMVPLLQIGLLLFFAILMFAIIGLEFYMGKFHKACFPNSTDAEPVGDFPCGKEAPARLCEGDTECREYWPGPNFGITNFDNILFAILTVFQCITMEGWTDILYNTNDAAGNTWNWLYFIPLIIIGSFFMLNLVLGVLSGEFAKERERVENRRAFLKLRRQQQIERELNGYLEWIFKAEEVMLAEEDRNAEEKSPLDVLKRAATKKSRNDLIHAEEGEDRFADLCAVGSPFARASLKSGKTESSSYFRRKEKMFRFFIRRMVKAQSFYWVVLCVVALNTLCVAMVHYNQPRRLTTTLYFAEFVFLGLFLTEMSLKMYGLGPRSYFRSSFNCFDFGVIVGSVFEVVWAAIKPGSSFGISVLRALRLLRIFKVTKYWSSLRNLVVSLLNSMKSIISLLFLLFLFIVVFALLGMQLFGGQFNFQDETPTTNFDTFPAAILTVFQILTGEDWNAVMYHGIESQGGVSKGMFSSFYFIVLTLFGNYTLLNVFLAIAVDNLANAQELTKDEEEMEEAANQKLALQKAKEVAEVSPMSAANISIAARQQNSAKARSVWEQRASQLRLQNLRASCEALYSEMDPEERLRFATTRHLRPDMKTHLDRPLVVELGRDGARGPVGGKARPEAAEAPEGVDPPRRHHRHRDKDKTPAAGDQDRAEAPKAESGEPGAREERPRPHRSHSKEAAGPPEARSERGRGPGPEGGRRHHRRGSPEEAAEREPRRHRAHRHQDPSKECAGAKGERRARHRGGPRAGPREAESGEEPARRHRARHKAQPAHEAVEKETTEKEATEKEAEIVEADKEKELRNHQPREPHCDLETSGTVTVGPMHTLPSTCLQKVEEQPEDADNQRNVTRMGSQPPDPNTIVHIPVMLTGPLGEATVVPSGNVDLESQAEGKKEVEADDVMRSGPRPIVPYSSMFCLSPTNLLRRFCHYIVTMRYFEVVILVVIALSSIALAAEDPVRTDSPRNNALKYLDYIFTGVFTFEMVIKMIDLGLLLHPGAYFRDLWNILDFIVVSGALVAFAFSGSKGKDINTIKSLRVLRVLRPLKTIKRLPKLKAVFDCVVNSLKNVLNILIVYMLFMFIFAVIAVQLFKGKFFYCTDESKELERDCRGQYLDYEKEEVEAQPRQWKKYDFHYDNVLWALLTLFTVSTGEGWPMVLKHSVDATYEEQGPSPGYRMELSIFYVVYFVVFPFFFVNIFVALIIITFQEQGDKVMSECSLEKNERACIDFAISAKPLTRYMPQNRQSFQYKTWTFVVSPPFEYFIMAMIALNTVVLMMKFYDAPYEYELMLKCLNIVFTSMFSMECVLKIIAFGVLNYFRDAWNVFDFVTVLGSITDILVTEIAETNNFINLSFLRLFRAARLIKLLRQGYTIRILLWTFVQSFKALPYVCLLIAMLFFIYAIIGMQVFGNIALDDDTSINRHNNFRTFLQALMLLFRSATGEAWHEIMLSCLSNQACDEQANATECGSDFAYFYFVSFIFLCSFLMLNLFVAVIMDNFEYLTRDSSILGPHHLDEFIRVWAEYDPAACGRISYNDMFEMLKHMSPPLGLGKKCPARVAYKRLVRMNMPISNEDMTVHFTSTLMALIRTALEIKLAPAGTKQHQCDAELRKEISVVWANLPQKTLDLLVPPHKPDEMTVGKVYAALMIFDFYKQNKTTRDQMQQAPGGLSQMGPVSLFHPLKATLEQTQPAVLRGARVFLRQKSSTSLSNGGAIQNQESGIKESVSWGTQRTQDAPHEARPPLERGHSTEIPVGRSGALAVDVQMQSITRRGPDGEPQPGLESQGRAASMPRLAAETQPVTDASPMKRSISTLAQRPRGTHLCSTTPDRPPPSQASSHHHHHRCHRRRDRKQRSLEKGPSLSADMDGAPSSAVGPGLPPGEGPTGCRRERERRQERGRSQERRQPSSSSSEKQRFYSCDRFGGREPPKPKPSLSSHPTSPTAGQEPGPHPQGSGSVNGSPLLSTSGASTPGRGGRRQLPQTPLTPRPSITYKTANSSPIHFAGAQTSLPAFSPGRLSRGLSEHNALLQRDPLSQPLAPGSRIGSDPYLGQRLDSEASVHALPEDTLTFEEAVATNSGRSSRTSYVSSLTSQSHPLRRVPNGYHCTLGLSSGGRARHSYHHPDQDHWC
T3 sequence (Q02410 whole entry): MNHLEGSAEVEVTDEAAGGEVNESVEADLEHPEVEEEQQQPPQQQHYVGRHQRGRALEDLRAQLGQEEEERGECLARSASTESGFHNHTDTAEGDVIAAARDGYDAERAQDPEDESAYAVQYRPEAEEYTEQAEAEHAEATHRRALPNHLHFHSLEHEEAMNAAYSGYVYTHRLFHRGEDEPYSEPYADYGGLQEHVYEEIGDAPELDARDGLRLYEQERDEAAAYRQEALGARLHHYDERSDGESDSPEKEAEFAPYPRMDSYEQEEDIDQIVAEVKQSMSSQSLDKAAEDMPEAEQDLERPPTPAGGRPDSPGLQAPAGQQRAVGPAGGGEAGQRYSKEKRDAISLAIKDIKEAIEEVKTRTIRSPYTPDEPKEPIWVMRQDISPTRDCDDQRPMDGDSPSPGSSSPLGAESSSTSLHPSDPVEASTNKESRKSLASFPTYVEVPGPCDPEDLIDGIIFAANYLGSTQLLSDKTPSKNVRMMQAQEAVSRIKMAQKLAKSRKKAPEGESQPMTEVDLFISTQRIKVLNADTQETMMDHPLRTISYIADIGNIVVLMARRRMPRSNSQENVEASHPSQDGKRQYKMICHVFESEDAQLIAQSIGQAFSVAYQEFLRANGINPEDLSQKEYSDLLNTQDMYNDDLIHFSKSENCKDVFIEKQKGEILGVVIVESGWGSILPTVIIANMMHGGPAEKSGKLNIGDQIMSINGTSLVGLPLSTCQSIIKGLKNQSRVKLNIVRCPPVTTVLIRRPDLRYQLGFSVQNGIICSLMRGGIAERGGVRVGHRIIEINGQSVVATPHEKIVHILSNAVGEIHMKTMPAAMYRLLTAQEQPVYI
Chain of G-protein coupled receptor 55 (Q9Y2T6 whole entry): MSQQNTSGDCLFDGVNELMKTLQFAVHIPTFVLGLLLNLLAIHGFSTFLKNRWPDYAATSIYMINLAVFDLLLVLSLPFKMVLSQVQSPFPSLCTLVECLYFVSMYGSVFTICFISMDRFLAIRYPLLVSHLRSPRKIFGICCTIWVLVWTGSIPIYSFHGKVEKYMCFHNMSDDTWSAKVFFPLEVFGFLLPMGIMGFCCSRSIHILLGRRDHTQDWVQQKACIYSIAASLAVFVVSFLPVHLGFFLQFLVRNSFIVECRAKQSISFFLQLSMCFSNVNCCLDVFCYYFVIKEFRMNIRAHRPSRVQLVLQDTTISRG
Chain of Eukaryotic translation initiation factor 4E (P63073 whole entry): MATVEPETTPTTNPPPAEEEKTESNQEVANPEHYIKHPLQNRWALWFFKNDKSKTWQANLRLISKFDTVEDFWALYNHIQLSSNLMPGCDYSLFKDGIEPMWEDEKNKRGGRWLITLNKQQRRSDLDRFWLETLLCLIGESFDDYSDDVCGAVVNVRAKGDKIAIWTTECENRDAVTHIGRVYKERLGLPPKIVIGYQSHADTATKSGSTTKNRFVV
Chain of Induced myeloid leukemia cell differentiation protein Mcl-1 (Q07820 whole entry): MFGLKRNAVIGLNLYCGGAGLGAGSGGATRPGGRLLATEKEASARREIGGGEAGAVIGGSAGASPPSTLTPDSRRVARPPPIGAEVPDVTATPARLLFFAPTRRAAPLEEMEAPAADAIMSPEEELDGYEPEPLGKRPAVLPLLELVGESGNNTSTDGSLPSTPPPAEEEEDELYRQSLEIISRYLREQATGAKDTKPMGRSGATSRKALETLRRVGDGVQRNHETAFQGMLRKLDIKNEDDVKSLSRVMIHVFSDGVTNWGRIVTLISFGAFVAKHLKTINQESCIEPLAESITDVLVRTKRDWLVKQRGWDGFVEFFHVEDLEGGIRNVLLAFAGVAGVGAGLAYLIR

For orientation: IC50 means the concentration that gives 50% inhibition. As to `Cc1cc2ncc(Cl)nc2cc1C`, the IC50 in test [1], in test [2] and in test [3] was > 79.4 µM (inactive) in each case.
Take `O=C(NCCO)c1cc(-c2cc(C(=O)NCCO)c3ccccc3n2)nc2ccccc12`: the IC50 in test [4] is > 50 µM (inactive); in [5], 6.83 µM (active).
Turning to `Cc1cc(O)ccc1C1(c2ccc(O)cc2C)OC(=O)c2ccccc21`, the IC50 in test [6] was 3.46 µM (active).
For `O=[N+]([O-])c1cc([N+](=O)[O-])c2nonc2c1Nc1ccc(O)cc1`, the IC50 in test [7] is 56.8 µM (active); at SUMO-activating enzyme [8], > 100 µM (inactive).
The term EC50 denotes the concentration at which the effect is half-maximal. As a reminder, the CC50 is the concentration at which the toxic effect on the cells reaches its halfway point. In general, AC50 refers to the midpoint of the concentration-response curve, whichever way the signal moves. For `COc1cc2c(-c3ccc(O)cc3)nc3c(c(C)nn3-c3ccccc3)c2cc1OC`, the IC50 in test [9] is < 0.4 µM (active); in the test “cells”, 19.1 µM (active); on SUMO-activating enzyme [11], 2.06 µM (active); in [14], 53.5 µM (inactive); at SUMO-activating enzyme [8], 7.67 µM (active). Moreover, the EC50 is 9.2 µM (active) in [10] and 8.96 µM (active) in [12]. Besides, the CC50 in the test on Vero was 19.7 µM (active); in test [13], 9.63 µM (active). The AC50 in [15] is 1.23 µM (active).
On to `c1ccc(Cn2c(-c3ccccc3)nc3nc4ccccc4nc32)cc1`, for which the EC50 at Troponin, cardiac muscle is > 71.5 µM (inactive).
Turning to `CC(C)(C)c1ccc(CN2C(=O)CN=C(c3ccccc3)c3ccccc32)cc1`, the half-maximal inhibitory concentration (IC50) in [6] is 3.35 µM (active).
For `CC(=O)N(C)c1ccc(C(O)(C(F)(F)F)C(F)(F)F)cc1`, on Troponin, cardiac muscle, the EC50 was > 71.5 µM (inactive).
As to `COc1ccc(OCC(=O)N/N=C/c2ccc(OC)c(OC)c2C(=O)O)cc1`, the IC50 in [1], in [2] and in test [3] was > 79.4 µM (inactive) in each case.
